This assay has as its target CYP2E1 (Rattus norvegicus, UniProt P05182). Put plainly: inhibition of chlorzoxazone 6-hydroxylation in rat liver microsomes, HPLC. Format: biochemical.

CYP2E1, sequence (P05182 2-493): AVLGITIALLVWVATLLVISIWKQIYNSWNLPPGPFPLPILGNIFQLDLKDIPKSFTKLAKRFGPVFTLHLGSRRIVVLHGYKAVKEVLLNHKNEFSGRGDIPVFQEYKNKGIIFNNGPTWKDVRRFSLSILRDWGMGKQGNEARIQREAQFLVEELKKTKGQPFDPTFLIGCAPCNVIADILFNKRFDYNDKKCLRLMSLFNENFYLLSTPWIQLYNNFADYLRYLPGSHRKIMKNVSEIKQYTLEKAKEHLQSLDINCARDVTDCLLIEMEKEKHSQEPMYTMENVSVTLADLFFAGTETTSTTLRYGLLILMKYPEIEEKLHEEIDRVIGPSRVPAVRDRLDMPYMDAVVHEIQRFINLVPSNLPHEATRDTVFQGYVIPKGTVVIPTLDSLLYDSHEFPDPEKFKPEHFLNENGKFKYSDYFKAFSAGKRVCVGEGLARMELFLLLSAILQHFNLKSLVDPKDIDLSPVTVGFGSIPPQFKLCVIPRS

Usually Ki stands for a measure of affinity in units of concentration, obtained from inhibition or displacement. A low value points to higher affinity. As for `O=C(O)c1ccccc1O` [salicylic acid], the affinity, expressed as Ki, was 83.6 ± 2.73 µM.

Values taken from PMC7071109, “Validation of an HPLC Method for the Simultaneous Quantification of Metabolic Reaction Products Catalysed by CYP2E1 Enzyme Activity: Inhibitory Effect of Cytochrome P450 Enzyme CYP2E1 by Salicylic Acid in Rat Liver Microsomes” (Molecules, 2020).
